Data reported in patent publication US10610520B2, “Heterocyclic compound” (Takeda Pharmaceutical Company Limited, priority 2016, dated 2020).

Target: T1, His-hMAGL (recombinant polyhistidine tagged human MAGL protein) (Homo sapiens, UniProt Q99685)
T1 construct: made in house; host or cells: E. coli BL21(DE3)
T1 sequence (Q99685 1-303): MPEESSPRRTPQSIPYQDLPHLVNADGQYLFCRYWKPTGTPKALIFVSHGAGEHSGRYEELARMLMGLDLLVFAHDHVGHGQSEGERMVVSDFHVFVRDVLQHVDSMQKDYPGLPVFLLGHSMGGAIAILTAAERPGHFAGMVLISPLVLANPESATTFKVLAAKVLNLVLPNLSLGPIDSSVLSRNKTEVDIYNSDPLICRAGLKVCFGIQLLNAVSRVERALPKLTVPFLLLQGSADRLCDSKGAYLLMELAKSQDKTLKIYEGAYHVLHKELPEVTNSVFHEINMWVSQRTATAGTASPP
Test: Measurement of MAGL inhibitory activity (arachidonic acid production from 2-arachidonylglycerol, RapidFire-mass spectrometry)
Format: biochemical
Conditions: MAGL inhibitory rate, test compound 10 μM, 60 min preincubation, 2-arachidonylglycerol substrate
Summary of the method: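 Arachidonic acid formed was quantified by online solid-phase extraction and triple-quadrupole MS in negative SRM mode against a d8 internal standard. Reaction: recombinant His-hMAGL (7.5 ng/mL, pH 7.5 Tris buffer with Triton X-100 and BSA) plus 2-AG (5 μL of 150 μM stock) for 10 min at room temperature, quenched with 2% formic acid. Percent inhibition corrected for enzyme-free background.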

inhibition at 10 µM | Structure (SMILES)
83% | O=C1CCC2(CN(C(=O)c3cc4cc(-c5ccc(Cl)cc5)ccc4s3)C2)N1 [Example 150, 2-((5-(4-chlorophenyl)-1-benzothiophen-2-yl)carbonyl)-2,5-diazaspiro[3.4]octan-6-one]
93% | Cc1c(C(=O)N2CC3(CCC(=O)N3)C2)sc2ccc([N+](=O)[O-])cc12 [Example 151, 2-((3-methyl-5-nitro-1-benzothiophen-2-yl)carbonyl)-2,5-diazaspiro[3.4]octan-6-one]
100% | COc1ccc2sc(C(=O)N3CC4(CCC(=O)N4)C3)c(Br)c2c1 [Example 152, 2-((3-bromo-5-methoxy-1-benzothiophen-2-yl)carbonyl)-2,5-diazaspiro[3.4]octan-6-one]
80% | O=C1CCC2(CN(C(=O)c3cc4ccc(-c5ccc(Cl)cc5)cc4o3)C2)N1 [Example 169, 2-((6-(4-chlorophenyl)-1-benzofuran-2-yl)carbonyl)-2,5-diazaspiro[3.4]octan-6-one]
99% | O=C1CCC2(CN(C(=O)c3ccc(-c4cccc(OCC(F)(F)F)c4)cc3)C2)N1 [Example 170, 2-((3′-(2,2,2-trifluoroethoxy)biphenyl-4-yl)carbonyl)-2,5-diazaspiro[3.4]octan-6-one]
98% | O=C1CCC2(CN(C(=O)c3ccc(-c4cccc(OCC5CC5)c4)cc3)C2)N1 [Example 171, 2-((3′-(cyclopropylmethoxy)biphenyl-4-yl)carbonyl)-2,5-diazaspiro[3.4]octan-6-one]
88% | O=C1CCC2(CN(C(=O)c3ccc(-c4ccccc4)cc3OC(F)(F)F)C2)N1 [Example 172, 2-((3-(trifluoromethoxy)biphenyl-4-yl)carbonyl)-2,5-diazaspiro[3.4]octan-6-one]
92% | O=C1CCC2(CN(C(=O)[C@H]3CC[C@H](c4ccc(O)cc4)CC3)C2)N1 [Example 173, 2-((trans-4-(4-hydroxyphenyl)cyclohexyl)carbonyl)-2,5-diazaspiro[3.4]octan-6-one]
88% | O=C1CCC2(CN(C(=O)c3ccc4scc(-c5ccc(F)cc5)c4c3)C2)N1 [Example 175, 2-((3-(4-fluorophenyl)-1-benzothiophen-5-yl)carbonyl)-2,5-diazaspiro[3.4]octan-6-one]
99% | O=C1CCC2(CN(C(=O)c3sc4cc(OC(F)(F)F)ccc4c3Cl)C2)N1 [Example 176, 2-((3-chloro-6-(trifluoromethoxy)-1-benzothiophen-2-yl)carbonyl)-2,5-diazaspiro[3.4]octan-6-one]
98% | O=C1CCC2(CN(C(=O)c3sc(-c4cccc(C(F)(F)F)c4)cc3Cl)C2)N1 [Example 177, 2-((3-chloro-5-(3-(trifluoromethyl)phenyl)-2-thienyl)carbonyl)-2,5-diazaspiro[3.4]octan-6-one]
100% | O=C1CCC2(CN(C(=O)c3sc(-c4cccc(OCC(F)(F)F)c4)cc3Cl)C2)N1 [Example 178, 2-((3-chloro-5-(3-(2,2,2-trifluoroethoxy)phenyl)-2-thienyl)carbonyl)-2,5-diazaspiro[3.4]octan-6-one]
100% | O=C1CCC2(CN(C(=O)c3sc4cc(C5=CCC(F)(F)CC5)ccc4c3Cl)C2)N1 [Example 179, 2-((3-chloro-6-(4,4-difluorocyclohex-1-en-1-yl)-1-benzothiophen-2-yl)carbonyl)-2,5-diazaspiro[3.4]octan-6-one]
87% | O=C1CCC2(CN(C(=O)c3sc(-c4ccccc4C(F)(F)F)cc3Cl)C2)N1 [Example 180, 2-((3-chloro-5-(2-(trifluoromethyl)phenyl)-2-thienyl)carbonyl)-2,5-diazaspiro[3.4]octan-6-one]
98% | O=C1CCC2(CN(C(=O)c3sc(-c4cccc(OCC5CC5)c4)cc3Cl)C2)N1 [Example 182, 2-((3-chloro-5-(3-(cyclopropylmethoxy)phenyl)-2-thienyl)carbonyl)-2,5-diazaspiro[3.4]octan-6-one]
99% | Cc1ccc(-c2ccc3c(Cl)c(C(=O)N4CC5(CCC(=O)N5)C4)sc3c2)cc1 [Example 184, 2-((3-chloro-6-(4-methylphenyl)-1-benzothiophen-2-yl)carbonyl)-2,5-diazaspiro[3.4]octan-6-one]
99% | Cc1ccccc1-c1ccc2c(Cl)c(C(=O)N3CC4(CCC(=O)N4)C3)sc2c1 [Example 185, 2-((3-chloro-6-(2-methylphenyl)-1-benzothiophen-2-yl)carbonyl)-2,5-diazaspiro[3.4]octan-6-one]
101% | Cc1cccc(-c2ccc3c(Cl)c(C(=O)N4CC5(CCC(=O)N5)C4)sc3c2)c1 [Example 186, 2-((3-chloro-6-(3-methylphenyl)-1-benzothiophen-2-yl)carbonyl)-2,5-diazaspiro[3.4]octan-6-one]
94% | CC(C)c1ccc(-c2ccc3c(Cl)c(C(=O)N4CC5(CCC(=O)N5)C4)sc3c2)cc1 [Example 187, 2-((3-chloro-6-(4-isopropylphenyl)-1-benzothiophen-2-yl)carbonyl)-2,5-diazaspiro[3.4]octan-6-one]
99% | CC(C)c1cccc(-c2ccc3c(Cl)c(C(=O)N4CC5(CCC(=O)N5)C4)sc3c2)c1 [Example 188, 2-((3-chloro-6-(3-isopropylphenyl)-1-benzothiophen-2-yl)carbonyl)-2,5-diazaspiro[3.4]octan-6-one]
100% | CC(C)c1ccccc1-c1ccc2c(Cl)c(C(=O)N3CC4(CCC(=O)N4)C3)sc2c1 [Example 189, 2-((3-chloro-6-(2-isopropylphenyl)-1-benzothiophen-2-yl)carbonyl)-2,5-diazaspiro[3.4]octan-6-one]
99% | O=C1CCC2(CN(C(=O)c3sc4cc(-c5cccc(Cl)c5)ccc4c3Cl)C2)N1 [Example 190, 2-((3-chloro-6-(3-chlorophenyl)-1-benzothiophen-2-yl)carbonyl)-2,5-diazaspiro[3.4]octan-6-one]
97% | O=C1CCC2(CN(C(=O)c3sc4cc(-c5ccc(Cl)cc5)ccc4c3Cl)C2)N1 [Example 191, 2-((3-chloro-6-(4-chlorophenyl)-1-benzothiophen-2-yl)carbonyl)-2,5-diazaspiro[3.4]octan-6-one]
100% | O=C1CCC2(CN(C(=O)c3sc4cc(-c5ccccc5Cl)ccc4c3Cl)C2)N1 [Example 192, 2-((3-chloro-6-(2-chlorophenyl)-1-benzothiophen-2-yl)carbonyl)-2,5-diazaspiro[3.4]octan-6-one]
100% | COc1ccc(-c2ccc3c(Cl)c(C(=O)N4CC5(CCC(=O)N5)C4)sc3c2)cc1 [Example 193, 2-((3-chloro-6-(4-methoxyphenyl)-1-benzothiophen-2-yl)carbonyl)-2,5-diazaspiro[3.4]octan-6-one]
100% | COc1cccc(-c2ccc3c(Cl)c(C(=O)N4CC5(CCC(=O)N5)C4)sc3c2)c1 [Example 194, 2-((3-chloro-6-(3-methoxyphenyl)-1-benzothiophen-2-yl)carbonyl)-2,5-diazaspiro[3.4]octan-6-one]
100% | COc1ccccc1-c1ccc2c(Cl)c(C(=O)N3CC4(CCC(=O)N4)C3)sc2c1 [Example 195, 2-((3-chloro-6-(2-methoxyphenyl)-1-benzothiophen-2-yl)carbonyl)-2,5-diazaspiro[3.4]octan-6-one]
